Reference: patent publication US20240309015A1, “Methods for the Treatment of Fibrotic Disease” (SHY Therapeutics, LLC, priority 2021, published 2024)

Tests used:
TNFα = assay: Mouse TNF Alpha Quantification Assay (LPS-stimulated RAW 264.7); format: cell-based; parameters: dose or concentration left out as unconfirmed; conditions: RAW264.7, ELISA, read-out: TNFα: % inh.
Smad2/3 phosphorylation = assay: Phospho-Smad2/3 Inhibition Assay in PANC-1; format: cell-based; conditions: Homo sapiens; 10 μM compound, 3 h; TGF-b1 stimulated PANC-1; western blot; read-out: % inh of Smad2/3 phosphorylation in PANC-1
Description: Cell lines: Human tumor-derived pancreatic cancer cell line Panc-1 and mouse muscle myoblast C2C12 were purchased from American Type Culture Collection and grown in complete DMEM-High Glucose, supplemented with penicillin (100 U/mL), streptomycin (100 μg/mL), and 10% heat-inactivated FBS at 37° C. in a humidified incubator with 5% CO2.
Method: Cells were plated at 350000 cells/well density in a 12-well plate, allowed 3 hours to adhere to the plate, then starved in the appropriate medium in the presence of 0.5% FBS overnight. The small molecules to be tested were added to the cells in the final concentration of 10 μM in the presence of 0.3% DMSO for 3 hours incubation at 37° C. For IC50 value determination, serial dilutions of compounds were added to cells under the same conditions. Next, Panc-1 cells were stimulated with 10 ng/ml TGF-b1 for 1 hour, and C2C12 cells were stimulated with 10 ng/ml TGF-b1 for 20 minutes (recombinant human TGF-b1, R&D Systems). After stimulation cells were lysed with lysis buffer containing 1% Triton X-100, EDTA, and Halt™ Protease & Phosphatase Inhibitor Cocktail (Thermo Scientific). Protein concentration was assessed by BCA protein assay (Thermo Scientific). Phosphorylation level of Smad2/Smad3 was determined by western blot.
Western blot protocol: Equal amounts of protein (15-50 μg) were separated by SDS-PAGE and transferred to nitrocellulose membranes (Invitrogen by Thermo Fisher Scientific). The membrane was stained with Ponceau S Stain (Boston BioProducts) to verify uniform protein loading. Membranes were blocked with 10% milk and phosphorylation levels of Smad2/Smad3 were assessed by incubating overnight at 4° C. with the following antibodies: Phospho-Smad2 (Ser465/467) and Phosph-Smad3 (Ser423/425), both from Cell Signaling Technology. Then the membranes were incubated with HRP-conjugated secondary antibody (Jackson Immunoresearch, West Grove, PA). Bands were incubated in Amersham ECL Prime Western Blotting Detection Reagent (GE Healthcare) and visualized using the ChemiDoc MP imaging system (Bio-Rad).

Rho-A = assay: Ras GTP Binding Domain Inhibition Assay, Rho-A; conditions: at 20 μM; without SOS
Procedure, shortened: (§1)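 His-tagged GTPases, 10-30 μg/mL in Tris-HCl buffer (pH 7.4 or 7.0, MgCl2, DTT), were immobilised on nickel-coated wells overnight at 4° C. Compounds were added at 20 μM or as serial dilutions for IC50 in 1% DMSO for 3 h at room temperature, ±Sos(556-1049) in the final hour. Bound Cy3/Cy5-GTP (100 nM, 45 min) was read after washing.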

IL-6 = assay: Mouse IL6 Quantification Assay (LPS-stimulated RAW 264.7); format: cell-based; parameters: dose or concentration left out as unconfirmed; conditions: RAW264.7, ELISA, read-out: IL-6: % inh.
KRas wild type = assay: Ras GTP Binding Domain Inhibition Assay, KRas wild type; conditions: at 20 μM; for KRas wild type + SOS: % inh.: with SOS; for KRas wild type: % inh.: without SOS
Procedure, shortened: as §1

KRas G12D mutant = assay: Ras GTP Binding Domain Inhibition Assay, KRas G12D mutant; conditions: at 20 μM; for KRas G12D mutant + SOS: % inh.: with SOS; for KRas G12D mutant: % inh.: without SOS
Procedure, shortened: as §1

KRas G12C mutant = assay: Ras GTP Binding Domain Inhibition Assay, KRas G12C mutant; conditions: at 20 μM; for KRas G12C mutant + SOS: % inh.: with SOS; for KRas G12C mutant: % inh.: without SOS
Procedure, shortened: as §1

Compound | inhibition (TNFα) [%] | inhibition at 10 µM (Smad2/3 phosphorylation) [%] | Rho-A: % inh. (Rho-A) | inhibition (IL-6) [%] | KRas wild type + SOS: % inh. (KRas wild type) | KRas wild type: % inh. (KRas wild type) | KRas G12D mutant + SOS: % inh. (KRas G12D mutant; Table 7) | KRas G12D mutant + SOS: % inh. (KRas G12D mutant; Table 8) | KRas G12D mutant: % inh. (KRas G12D mutant; Table 7) | KRas G12D mutant: % inh. (KRas G12D mutant; Table 8) | KRas G12C mutant + SOS: % inh. (KRas G12C mutant) | KRas G12C mutant: % inh. (KRas G12C mutant)
Cc1c(-c2ccn(C(C)C)n2)sc2nc(-c3nccn3C)nc(NCC3CCCO3)c12 (racemic) [Compound 26, rac-6-(1-Isopropyl-1H-pyrazol-3-yl)-5-methyl-2-(1-methyl-1H-imidazol-2-yl)-N-((tetrahydrofuran-2-yl)methyl)thieno[2,3-d]pyrimidin-4-amine] | 0 | 0 | D (D = 76-100% inhibition) | 76 to 100 | D (D = 76-100% inhibition) | D (D = 76-100% inhibition) | C (C = 46-75% inhibition) | C (C = 46-75% inhibition) | D (D = 76-100% inhibition) | D (D = 76-100% inhibition) | D (D = 76-100% inhibition) | D (D = 76-100% inhibition)
COc1cccc(-c2sc3nc(-c4nccn4C)nc(N[C@@H]4CC[C@@H](OC)C4)c3c2-c2ccccc2)c1F (racemic) [Compound 41, 6-(2-Fluoro-3-methoxyphenyl)-N-((1R,3R)-3-methoxycyclopentyl)-2-(1-methyl-1H-imidazol-2-yl)-5-phenylthieno[2,3-d]pyrimidin-4-amine] | 76 to 100 | 76 to 100 | 0 (0 = 0% inhibition) | 76 to 100 | D (D = 76-100% inhibition) | B (B = 26-45% inhibition) | C (C = 46-75% inhibition) | C (C = 46-75% inhibition) | A (A = 1-25% inhibition) | A (A = 1-25% inhibition) | D (D = 76-100% inhibition) | B (B = 26-45% inhibition)
COCCCOc1nc(-c2nccn2C)nc2sc(-c3ccn(C(C)C)n3)c(C)c12 [Compound 32, 6-(1-Isopropyl-1H-pyrazol-3-yl)-4-(3-methoxypropoxy)-5-methyl-2-(1-methyl-1H-imidazol-2-yl)thieno[2,3-d]pyrimidine] | 76 to 100 | 0 | D (D = 76-100% inhibition) | 76 to 100 | D (D = 76-100% inhibition) | D (D = 76-100% inhibition) | C (C = 46-75% inhibition) | C (C = 46-75% inhibition) | C (C = 46-75% inhibition) | C (C = 46-75% inhibition) | C (C = 46-75% inhibition) | C (C = 46-75% inhibition)
COCCCOc1nc(-c2nccn2C)nc2sc(-c3ccn(C(C)C)n3)c(-c3ccccc3)c12 [Compound 37, 6-(1-Isopropyl-1H-pyrazol-3-yl)-4-(3-methoxypropoxy)-2-(1-methyl-1H-imidazol-2-yl)-5-phenylthieno[2,3-d]pyrimidine] | 0 | 0 | 0 (0 = 0% inhibition) | 76 to 100 | A (A = 1-25% inhibition) | 0 (0 = 0% inhibition) | 0 (0 = 0% inhibition) | 0 (0 = 0% inhibition) | 0 (0 = 0% inhibition) | 0 (0 = 0% inhibition) | 0 (0 = 0% inhibition) | 0 (0 = 0% inhibition)
COc1nccc(-c2sc3nc(-c4nccn4C)nc(N[C@H]4C[C@H](OC)C4)c3c2-c2ccccc2)c1F [Compound 45, 6-(3-Fluoro-2-methoxypyridin-4-yl)-N-((1r,3r)-3-methoxycyclobutyl)-2-(1-methyl-1H-imidazol-2-yl)-5-phenylthieno[2,3-d]pyrimidin-4-amine] | – | 76 to 100 | C (C = 46-75% inhibition) | – | D (D = 76-100% inhibition) | C (C = 46-75% inhibition) | C (C = 46-75% inhibition) | C (C = 46-75% inhibition) | C (C = 46-75% inhibition) | C (C = 46-75% inhibition) | D (D = 76-100% inhibition) | B (B = 26-45% inhibition)
COC1CCCN(c2nc(-c3nccn3C)nc3sc(-c4ccn(C(C)C)n4)c(C)c23)C1 (racemic) [Compound 14, rac-6-(1-Isopropyl-1H-pyrazol-3-yl)-4-(3-methoxypiperidin-1-yl)-5-methyl-2-(1-methyl-1H-imidazol-2-yl)thieno[2,3-d]pyrimidine] | 26 to 45 | 46 to 75 | B (B = 26-45% inhibition) | 76 to 100 | D (D = 76-100% inhibition) | 0 (0 = 0% inhibition) | – | – | – | – | D (D = 76-100% inhibition) | B (B = 26-45% inhibition)
COc1cc(-c2sc3nc(-c4nccn4C)nc(N[C@H]4C[C@H](OC)C4)c3c2-c2ccccc2)ccn1 [Compound 46, N-((1r,3r)-3-Methoxycyclobutyl)-6-(2-methoxypyridin-4-yl)-2-(1-methyl-1H-imidazol-2-yl)-5-phenylthieno[2,3-d]pyrimidin-4-amine] | – | 76 to 100 | C (C = 46-75% inhibition) | – | D (D = 76-100% inhibition) | C (C = 46-75% inhibition) | C (C = 46-75% inhibition) | C (C = 46-75% inhibition) | C (C = 46-75% inhibition) | C (C = 46-75% inhibition) | D (D = 76-100% inhibition) | B (B = 26-45% inhibition)
